Data published in patent publication US10662193B2, “Carbazole and carboline compounds for use in the diagnosis, treatment, alleviation or prevention of disorders associated with amyloid or amyloid-like proteins” (AC IMMUNE SA, priority 2014, dated 2020).

Experiments:
amyloid-beta = experiment: Autoradiography on human brain sections with an 18F amyloid binding compound (selectivity); details: FIG. 13
Procedure: 18 micron thick frozen human brain slices and 6 micron thick human FFPE brain slices from the frontal and/or temporal lobes of AD patients were examined via autoradiography. Brain sections were equilibrated for at least 1 h in 1×PBS solution prior to use in the experiment. Each brain section was covered with a solution of the F-18 labeled tracer (200 Bq/μl, 500 μl) in 1×PBS. For blocking experiments with the corresponding 19F-labeled compound, an excess of the blocking compound was mixed with the 18F-compound to yield an end concentration of 10 μM. The brain sections were allowed to incubate with the tracer solution at room temperature for 1 h, drained afterwards and placed in a slide holder. The slides were then washed sequentially with 1×PBS for 1 min; 70% EtOH in 1×PBS for 2 min; 30% EtOH in 1×PBS for 2 min; and 1×PBS for 1 min. The slides were allowed to air-dry before being placed on Fuji imaging plates for overnight exposure. The imaging plates were scanned and the signal was measured using Fuji software to produce an autoradiographic image of the brain section. Representative examples of autoradiography studies with ^18F-178, ^18F-189, ^18F-161, ^18F-95, ^18F-168, ^18F-146, ^18F-156, ^18F-159 are shown in FIGS. 9 to 12. […] Additionally, selectivity was determined by using a tracer binding to amyloid-beta.

[1] = system: tau tangles/Aβ plaques on AD brain sections; experiment: Assay 1: direct staining of human Alzheimer's disease brain sections (fluorescence); assay type: binding; details: 100 μM; FIG. 1
How it was run: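 Compounds (100 μM, 50% aqueous ethanol, 20 min, RT, dark) applied directly to fixed […] frozen amygdala sections of Braak stage V-VI Alzheimer's brains. After washing and 0.1% Sudan Black treatment against autofluorescence, sections were imaged microscopically for fluorescent staining.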

AD brain-enriched PHF = AD brain-enriched PHF (Homo sapiens, UniProt P10636); experiment: Assay 2 (filter trap): radio-binding assay, determination of the dissociation constant (Kd) on PHF; details: tritiated ligand 1.25-50 nM, PHF diluted 1/80, 45 min 37° C.
Chain of AD brain-enriched PHF (P10636 623-708 limits assumed): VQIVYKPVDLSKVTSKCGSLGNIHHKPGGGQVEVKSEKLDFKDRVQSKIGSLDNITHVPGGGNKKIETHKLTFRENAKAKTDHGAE
Procedure: Enrichment of Paired Helical Filaments (PHF's) from Human Alzheimer's Disease Brain
50 g of frontal lobe tissue from post-mortem brain of an Alzheimer's disease (AD) patient were obtained from the London Tissue Bank. The patient was a […] and died […]. The brain sample was collected 5 hours post-mortem and characterized for Braak disease stage (Braak, H.; Braak, E. Acta Neuropathol., 1991, 82, 239-259) as stage VI. […]
AD brain-enriched PHF were diluted 1/80 (with an estimated tau concentration of 62.5 ng/ml and incubated with [^3H]RefA at different concentrations ranging from 50 nM to 1.25 nM. The reaction was performed in a final volume of 70 μL PBS with 2.8% DMSO, for 45 min at 37° C. 30 μL of samples in duplicates were then filtered under vacuum on a GF/B filter plate (PerkinElmer 6005177) to trap the PHF with the bound radio-ligand, and washed three times with PBS. The GF/B filters were then vacuum-dried, 20 μL scintillation liquid (PerkinElmer 1200-436) was added in each well, and the filters were analyzed on a Microbeta Trilux device. […] Specific binding was calculated by subtracting the non-specific signal to the total signal. […] The Kd values were calculated by nonlinear regression, one site specific binding using Prism V5 (GraphPad). […]

[2] = molecular target: T1, in vitro aggregated Abeta1-42 (Homo sapiens, UniProt P05067); experiment: Assay 2 (filter trap): [3H]RefA radio-binding assay, Kd on aggregated Abeta1-42; details: Table 23; aggregated Abeta1-42 versus AD brain-enriched PHF
T1 construct: Abeta1-42 (Bachem, Switzerland) peptide films were re-suspended in 1% DMSO; purchased Bachem, Switzerland
T1 sequence (P05067 672-713 limits assumed): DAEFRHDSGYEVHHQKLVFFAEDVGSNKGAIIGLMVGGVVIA
Procedure: Preparation of Full-Length Tau and Abeta1-42 Aggregates
Recombinant human full-length Tau441 (flTau) was expressed in bacteria and purified in the laboratory of Professor Hilal Lashuel (EPFL, Switzerland). A solution of 8 μM (400 μg/mL) flTau in PBS, 10 μM DTT and 5 μM heparin (all from Sigma-Aldrich) was gently mixed (cradled) for 3 days at 37° C. Cradled flTau aggregates were used at a final concentration of 20 μg/mL in all binding assays. Abeta1-42 (Bachem, Switzerland) peptide films were re-suspended in 1% DMSO and diluted in PBS to a 33 μM (150 μg/mL) suspension that was sonicated until complete dissolution. Aggregation process was done at 37° C. for 24 hours. […]
AD brain-enriched PHF were diluted 1/80 (with an estimated tau concentration of 62.5 ng/ml and incubated with [^3H]RefA at different concentrations ranging from 50 nM to 1.25 nM. The reaction was performed in a final volume of 70 μL PBS with 2.8% DMSO, for 45 min at 37° C. 30 μL of samples in duplicates were then filtered under vacuum on a GF/B filter plate (PerkinElmer 6005177) to trap the PHF with the bound radio-ligand, and washed three times with PBS. The GF/B filters were then vacuum-dried, 20 μL scintillation liquid (PerkinElmer 1200-436) was added in each well, and the filters were analyzed on a Microbeta Trilux device. […] Specific binding was calculated by subtracting the non-specific signal to the total signal. […]

`Cn1c2ccncc2c2ccc(Nc3cncc(OCC[18F])c3)nc21` [^18F-59] was tested. Which “competition with ^18F amyloid binding compound” value (amyloid-beta) did it give?
Its value is “no competition”.

Which “competition with ^18F amyloid binding compound” value (amyloid-beta) does the source give for `Cn1c2ccncc2c2ccc(Nc3cccc(OCC[18F])c3)nc21` [^18F-44] here?
Its value is “no competition”.

For `CNc1ccc(-c2ccc3ccc(O)cc3n2)cc1` [RefA], which “direct staining of tau tangles on AD brain section” value [1] is on record?
Its value is “direct staining of tau tangles”.

And the Kd (AD brain-enriched PHF)?
The Kd was 35 nM.

And the “Fold increase on Abeta1-42 vs PHF” value [2]?
The value was 5.
